Earlier results on 1 molecule are cited in patent US20110027361A1, “EXTENDED RELEASE DOSAGE FORM OF PALIPERIDONE” (TORRENT PHARMACEUTICALS LTD., priority 2008, published 2011).

For data set [1] the following is noted: in vivo.

For `Cc1nc2n(c(=O)c1CCN1CCC(c3noc4cc(F)ccc34)CC1)CCCC2O` (stereo not shown) [Paliperidone], the “solubility in 0.1N HCl” value (0.1N HCl) is recorded as “sparingly soluble”. For the same molecule, the “solubility in methylene chloride” value (methylene chloride) is recorded as “sparingly soluble”. Besides, the solubility in water result (water) is listed as “practically insoluble”. Also, the terminal elimination half-life entry in data set [1] is on record as “approximately 23 hours”.
